Data reported in patent publication US20230263822A1, “MODULATION OF FACTOR 11 EXPRESSION” (Ionis Pharmaceuticals, Inc., priority 2008, published 2023).
Strand notation (5' to 3'): a small letter for the sugar, then the base; units joined by * are phosphorothioate-linked, units joined directly phosphodiester-linked; [ ] holds rarer units or linkages, { } end groups; capitals alone tell only the bases. e = 2'-O-(2-methoxyethyl) (MOE); [5mC] = 5-methylcytosine; d = 2'-deoxy (DNA)

Tested on: human Factor 11 mRNA
Assay: Antisense inhibition of human Factor 11 in HepG2 cells by microwalk gapmers, lipofectin, 75 nM (Example 3)
Assay type: cell-based
Conditions: HepG2 cells, lipofectin, gapmers targeted to nucleobases 1275 to 1318 of SEQ ID NO: 1
Method in brief: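 HepG2 cells (10,000/well) were transfected via lipofectin with 75 nM 20-mer MOE gapmers (phosphorothioate, 5-methyl-C) for about 24 h. Factor 11 mRNA was measured by qRT-PCR, normalized to RIBOGREEN total RNA, and given as percent inhibition versus untreated cells.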

Substance	% inhibition
417007 (antisense eG*e[5mC]*dA*dT*dT*dG*dG*dT*dG*d[5mC]*dA*d[5mC]*dA*dG*dT*eT*eT*e[5mC]*eT*eG) [compound 417007]	82%
417008 (antisense eG*eG*d[5mC]*dA*dT*dT*dG*dG*dT*dG*d[5mC]*dA*d[5mC]*dA*dG*eT*eT*eT*e[5mC]*eT) [compound 417008]	82%
417009 (antisense e[5mC]*eG*dG*d[5mC]*dA*dT*dT*dG*dG*dT*dG*d[5mC]*dA*d[5mC]*dA*eG*eT*eT*eT*e[5mC]) [compound 417009]	85%
417010 (antisense eA*e[5mC]*dG*dG*d[5mC]*dA*dT*dT*dG*dG*dT*dG*d[5mC]*dA*d[5mC]*eA*eG*eT*eT*eT) [compound 417010]	81%
417011 (antisense eG*eA*d[5mC]*dG*dG*d[5mC]*dA*dT*dT*dG*dG*dT*dG*d[5mC]*dA*e[5mC]*eA*eG*eT*eT) [compound 417011]	86%
417012 (antisense eG*eG*dA*d[5mC]*dG*dG*d[5mC]*dA*dT*dT*dG*dG*dT*dG*d[5mC]*eA*e[5mC]*eA*eG*eT) [compound 417012]	72%
417013 (antisense e[5mC]*eG*dG*dA*d[5mC]*dG*dG*d[5mC]*dA*dT*dT*dG*dG*dT*dG*e[5mC]*eA*e[5mC]*eA*eG) [compound 417013]	86%
417014 (antisense eG*e[5mC]*dG*dG*dA*d[5mC]*dG*dG*d[5mC]*dA*dT*dT*dG*dG*dT*eG*e[5mC]*eA*e[5mC]*eA) [compound 417014]	87%
417015 (antisense eA*eG*d[5mC]*dG*dG*dA*d[5mC]*dG*dG*d[5mC]*dA*dT*dT*dG*dG*eT*eG*e[5mC]*eA*e[5mC]) [compound 417015]	87%
417016 (antisense e[5mC]*eA*dG*d[5mC]*dG*dG*dA*d[5mC]*dG*dG*d[5mC]*dA*dT*dT*dG*eG*eT*eG*e[5mC]*eA) [compound 417016]	85%
417017 (antisense eG*e[5mC]*dA*dG*d[5mC]*dG*dG*dA*d[5mC]*dG*dG*d[5mC]*dA*dT*dT*eG*eG*eT*eG*e[5mC]) [compound 417017]	82%
417018 (antisense eG*eG*d[5mC]*dA*dG*d[5mC]*dG*dG*dA*d[5mC]*dG*dG*d[5mC]*dA*dT*eT*eG*eG*eT*eG) [compound 417018]	82%
417019 (antisense eT*eG*dG*d[5mC]*dA*dG*d[5mC]*dG*dG*dA*d[5mC]*dG*dG*d[5mC]*dA*eT*eT*eG*eG*eT) [compound 417019]	84%
417020 (antisense e[5mC]*eT*dG*dG*d[5mC]*dA*dG*d[5mC]*dG*dG*dA*d[5mC]*dG*dG*d[5mC]*eA*eT*eT*eG*eG) [compound 417020]	84%
417021 (antisense eA*e[5mC]*dT*dG*dG*d[5mC]*dA*dG*d[5mC]*dG*dG*dA*d[5mC]*dG*dG*e[5mC]*eA*eT*eT*eG) [compound 417021]	74%
